Earlier results as cited in US20080206348A1, “Cilostazol-Containing Pharmaceutical Composition Based On Particles Of Less Than 50 Micrometers” (priority 2004, published 2008).

O=C1CCc2cc(OCCCCc3nnnn3C3CCCCC3)ccc2N1 [Cilostazol]
Solubility in water: practically insoluble
